What was measured:
[1] = target: T1, Glucocorticoid Receptor (Homo sapiens, UniProt P04150); test: Transactivation assay, MDA cells; format: cell-based; parameters: host or cells: MDA cells; conditions: read-out: Transactivation, MDA Emax
T1 sequence (P04150 1-777): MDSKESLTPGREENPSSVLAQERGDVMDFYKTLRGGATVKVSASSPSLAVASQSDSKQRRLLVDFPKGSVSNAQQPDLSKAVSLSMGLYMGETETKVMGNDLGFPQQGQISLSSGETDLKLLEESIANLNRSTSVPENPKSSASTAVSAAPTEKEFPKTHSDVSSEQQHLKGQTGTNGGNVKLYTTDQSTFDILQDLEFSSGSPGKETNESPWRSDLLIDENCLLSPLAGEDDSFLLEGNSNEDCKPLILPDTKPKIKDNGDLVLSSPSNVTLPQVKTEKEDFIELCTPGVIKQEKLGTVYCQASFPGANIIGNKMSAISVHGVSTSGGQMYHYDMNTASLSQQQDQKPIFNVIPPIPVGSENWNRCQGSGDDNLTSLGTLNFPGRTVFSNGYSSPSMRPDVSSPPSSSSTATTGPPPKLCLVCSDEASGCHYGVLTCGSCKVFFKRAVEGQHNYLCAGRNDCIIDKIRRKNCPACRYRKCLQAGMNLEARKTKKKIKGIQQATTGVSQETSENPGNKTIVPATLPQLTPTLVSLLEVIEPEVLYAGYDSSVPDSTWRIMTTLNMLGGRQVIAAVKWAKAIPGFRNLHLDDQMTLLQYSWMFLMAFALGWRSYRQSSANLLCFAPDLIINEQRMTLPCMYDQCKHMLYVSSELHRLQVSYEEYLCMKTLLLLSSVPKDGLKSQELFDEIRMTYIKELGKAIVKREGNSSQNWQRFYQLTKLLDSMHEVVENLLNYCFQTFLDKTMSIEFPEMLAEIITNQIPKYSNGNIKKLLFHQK

[2] = target: T1, Glucocorticoid Receptor; test: Transactivation assay, A549 cells; format: cell-based; conditions: A549, read-out: Transactivation, A549 Emax
[3] = target: T1, Glucocorticoid Receptor; test: Transrepression assay, COS cells; format: cell-based; parameters: host or cells: COS cells; conditions: COS
[4] = tested on: CA77 cells; test: CA77 cell microarray profiling; format: cell-based, rat
Experimental: In order to reduce false positives, progesterone, estradiol, and aldosterone served as out-groups for non-specific effects. Samples were collected at both 6 hours and 24 hours after contacting the CA77 cells with a compound.

[5] = tested on: A549 cells; test: A549 cell molecular profiling experiment; format: cell-based; conditions: 100 nM

SMILES: C[C@@H]1C[C@H]2[C@@H]3CCC4=CC(=O)C=C[C@]4(C)[C@@]3(F)[C@@H](O)C[C@]2(C)[C@@]1(O)C(=O)CO [Dexamethasone, dexamethasone]
- Emax [1]: 125%
- Emax [2]: 118%
- Emax at 0.3 µM ([3]; read-out: Transrepression, COS % Emax, 0.3 μM): 100%
- Emax at 1 µM ([3]; read-out: Transrepression, COS % Emax, 1 uM): 100%
- Sult1a1 up-regulation as detected by microarray [4]: 11 fold
- Up-regulated genes in category DMSO (<0%) ([5]; set of 1091 genes): 0
- Up-regulated genes in category Full (≧90%) ([5]; set of 1091 genes): 1087
- Up-regulated genes in category High (66.7-90%) ([5]; set of 1091 genes): 4
- Up-regulated genes in category Low (0-33.3%) ([5]; set of 1091 genes): 0
- Up-regulated genes in category Middle (33.3-66.7%) ([5]; set of 1091 genes): 0
- Down-regulated genes in category DMSO (<0%) ([5]; set of 1249 genes): 0
- Down-regulated genes in category Full (≧90%) ([5]; set of 1249 genes): 1237
- Down-regulated genes in category High (66.7-90%) ([5]; set of 1249 genes): 12
- Down-regulated genes in category Low (0-33.3%) ([5]; set of 1249 genes): 0
- Down-regulated genes in category Middle (33.3-66.7%) ([5]; set of 1249 genes): 0

From patent US20100040552A1, “METHODS TO EVALUATE GLUCOCORTICOID RECEPTOR AGONISTS AND ANTAGONISTS FOR EFFECTS ON NEURON-LIKE CELLS” (ROSETTA INPHARMATICS LLC, priority 2005, published 2010)
